# US20230167088A1, “1-PYRAZINYLPYRAZOLYL-3-OXYALKYL ACIDS AND THEIR DERIVATIVES, AND THEIR USE FOR CONTROL OF UNDESIRED PLANT GROWTH” (BAYER AKTIENGESELLSCHAFT, priority 2020, published 2023)
# How the values were obtained:
# STEME [1] = assay: Herbicidal pre-emergence action 2b (doubly sown, 1280 g/ha); format: in vivo, Stellaria media; settings: doubly sown pots, dosage 1280 g/ha, visual scoring after about 3 weeks
# Outline: (§1)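 Pots of sandy loam doubly sown with one monocot and one dicot weed species, covered, then soil surface sprayed pre-emergence with WP or EC formulations plus 0.5% additive at 600 l/ha water. Greenhouse-grown about 3 weeks; activity scored visually as % versus untreated controls (100% = dead).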
# ALOMY [2] = assay: Herbicidal pre-emergence action 2a (greenhouse pots, visual scoring); format: in vivo, Alopecurus myosuroides; settings: dosage 320 g/ha, visual scoring after about 3 weeks
# Outline: (§2)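 The soil covering sown seeds is treated with an aqueous suspension or emulsion of wettable powder or emulsion concentrate (0.5% additive, 600 l/ha), corresponding to 320 g/ha and/or 80 g/ha. After about 3 weeks of greenhouse growth, damage is scored visually as a percentage.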
# ALOMY [3] = assay: Herbicidal post-emergence action 1a (greenhouse pots, visual rating); format: in vivo, Alopecurus myosuroides; settings: rated visually about 3 weeks after treatment, 100% = plants have died, 0% = like control plants
# Outline: (§3)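 Weeds and crops sown in sandy loam in greenhouse pots were sprayed post-emergence at the one-leaf stage (2–3 weeks after sowing) with WP or EC formulations plus 0.5% additive at 600 l/ha water, 320 and/or 80 g/ha. About 3 weeks later damage was rated visually against untreated controls (0% = no effect, 100% = dead).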
# DIGSA [4] = assay: as above; format: in vivo, Digitaria sanguinalis; settings: rated visually about 3 weeks after treatment, 100% = plants have died, 0% = like control plants
# Outline: as §3
# AMARE = assay: Herbicidal pre-emergence action 2b (doubly sown, 1280 g/ha); format: in vivo, Amaranthus retroflexus; settings: doubly sown pots, dosage 1280 g/ha, visual scoring after about 3 weeks
# Outline: as §1
# harmful plants = assay: Herbicidal pre-emergence action 2a, summary across species; format: in vivo; settings: Tables B1 to B15 (320 g/ha and/or 80 g/ha)
# Outline: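 Pre-emergence greenhouse test: WP or EC formulations sprayed onto soil covering sown weed and crop seeds, 600 l/ha water with 0.5% additive, at 320 g/ha and/or 80 g/ha. Damage scored visually after about 3 weeks as % versus untreated control (100% = plants dead).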
# STEME [5] = assay: Herbicidal post-emergence action 1b (twin sowing, 1280 g/ha); format: in vivo, Stellaria media; settings: dosage 1280 g/ha, visual rating about 3 weeks after treatment
# Outline: (§4)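 Twin-sown weeds in sandy loam, greenhouse-grown 2–3 weeks, sprayed post-emergence at one-leaf stage with WP/EC formulations plus 0.5% additive at 600 L/ha water. Damage rated visually about 3 weeks later versus untreated controls (100% = plants dead, 0% = like control).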
# STEME [6] = assay: Herbicidal post-emergence action 1a (greenhouse pots, visual rating); format: in vivo, Stellaria media; settings: rated visually about 3 weeks after treatment, 100% = plants have died, 0% = like control plants
# Outline: as §3
# PHBPU = assay: as above; format: in vivo, Pharbitis purpurea; settings: visual rating about 3 weeks after treatment
# Outline: as §3
# POLCO = assay: Herbicidal pre-emergence action 2a (greenhouse pots, visual scoring); format: in vivo, Polygonum convolvulus; settings: dosage 320 g/ha, visual scoring after about 3 weeks vs untreated controls
# Outline: as §2
# DIGSA [7] = assay: Herbicidal post-emergence action 1b (twin sowing, 1280 g/ha); format: in vivo, Digitaria sanguinalis; settings: dosage 1280 g/ha, visual rating about 3 weeks after treatment
# Outline: as §4
SMILES,Pre-emergence action at 1280 g/ha against STEME in % (STEME [1]),Pre-emergence action against ALOMY in % (ALOMY [2]),Post-emergence action against ALOMY in % (ALOMY [3]; Dosage 80 g/ha),Post-emergence action against ALOMY in % (ALOMY [3]; Dosage 320 g/ha),Post-emergence action against DIGSA in % (DIGSA [4]; Dosage 80 g/ha),Post-emergence action against DIGSA in % (DIGSA [4]; Dosage 320 g/ha),Pre-emergence action at 1280 g/ha against AMARE in % (AMARE),herbicidal efficacy against harmful plants in the case of pre-emergence treatment (in words) (harmful plants),Post-emergence action at 1280 g/ha against STEME in % (STEME [5]),Post-emergence action against STEME in % (STEME [6]; Dosage 320 g/ha),Post-emergence action against PHBPU in % (PHBPU; dosage 80 g/ha),Post-emergence action against PHBPU in % (PHBPU; dosage 320 g/ha),Pre-emergence action against POLCO in % (POLCO),Post-emergence action against STEME in % (STEME [6]; Dosage 80 g/ha),Post-emergence action at 1280 g/ha against DIGSA in % (DIGSA [7])
COC(=O)C(C)Oc1nn(-c2cnccn2)c(-c2ccnc(F)c2)c1Cl (racemic) [Example I-05],100%,100%,100%,100%,80%,90%,100%,good herbicidal efficacy,90%,80%,–,–,–,–,–
COC(=O)C(C)Oc1nn(-c2cnccn2)c(-c2cncc(F)c2)c1Br (racemic) [Example I-08],–,100%,100%,100%,–,80%,–,good herbicidal efficacy,–,90%,80%,90%,100%,90%,–
COC(=O)C(C)Oc1nn(-c2cnccn2)c(-c2ccnc(F)c2)c1Br (racemic) [Example I-10],100%,100%,90%,90%,–,80%,100%,–,90%,90%,–,–,–,–,–
COC(=O)COc1nn(-c2cnccn2)c(-c2cncc(F)c2)c1Br [Example I-07],–,100%,90%,100%,80%,90%,–,good herbicidal efficacy,–,90%,90%,90%,90%,90%,–
C[C@H](Oc1nn(-c2cnccn2)c(-c2cncc(F)c2)c1Br)C(=O)O [Example I-37],100%,100%,90%,100%,–,90%,100%,good herbicidal efficacy,100%,–,–,80%,100%,–,100%
COC(=O)[C@@H](C)Oc1nn(-c2cnccn2)c(-c2cncc(F)c2)c1Br [Example I-39],100%,100%,90%,100%,80%,90%,100%,good herbicidal efficacy,100%,–,80%,90%,90%,–,100%
